Source: paper PMC10702058, “Phase I dose escalation study and pilot efficacy analysis of LXI-15029, a novel mTOR dual inhibitor, in Chinese subjects with advanced malignant solid tumors” (BMC Cancer, 2023)

Assay: Phase I dose escalation: safety and tolerability (DLT, MTD, adverse events, NCI-CTCAE 4.03)

## CNC(=O)c1cccc(-c2ccc3c(N4C5CCC4COC5)nc(N4CCOC[C@@H]4C)nc3n2)c1 [LXI-15029]
10 mg BID (n = 3)
  Patients with any TEAE: 3 (100.0) n (%)
  Patients with any TEAE, maximum CTCAE Grade 1: 3 (100.0) n (%)
  Patients with any TEAE, maximum CTCAE Grade 2: 0 n (%)
  Patients with any TEAE, maximum CTCAE Grade 3: 0 n (%)
  ≥ 10% TRAE: ALT increased: 0 n (%)
  ≥ 10% TRAE: AST increased: 0 n (%)
  ≥ 10% TRAE: Decreased appetite: 1 (33.3) n (%)
  ≥ 10% TRAE: Diarrhea: 0 n (%)
  ≥ 10% TRAE: ECG QT prolonged: 0 n (%)
  ≥ 10% TRAE: Fatigue: 0 n (%)
  ≥ 10% TRAE: GGT increased: 0 n (%)
  ≥ 10% TRAE: Hypercholesterolemia: 0 n (%)
  ≥ 10% TRAE: Hypertriglyceridemia: 0 n (%)
  ≥ 10% TRAE: LDL increased: 0 n (%)
  ≥ 10% TRAE: Leukocytopenia: 0 n (%)
  ≥ 10% TRAE: Neutropenia: 0 n (%)
  ≥ 10% TRAE: Sinus bradycardia: 0 n (%)
20 mg BID (n = 3)
  Patients with any TEAE: 3 (100.0) n (%)
  Patients with any TEAE, maximum CTCAE Grade 1: 2 (66.7) n (%)
  Patients with any TEAE, maximum CTCAE Grade 2: 1 (33.3) n (%)
  Patients with any TEAE, maximum CTCAE Grade 3: 0 n (%)
  ≥ 10% TRAE: ALT increased: 1 (33.3) n (%)
  ≥ 10% TRAE: AST increased: 0 n (%)
  ≥ 10% TRAE: Decreased appetite: 0 n (%)
  ≥ 10% TRAE: Diarrhea: 0 n (%)
  ≥ 10% TRAE: ECG QT prolonged: 0 n (%)
  ≥ 10% TRAE: Fatigue: 1 (33.3) n (%)
  ≥ 10% TRAE: GGT increased: 1 (33.3) n (%)
  ≥ 10% TRAE: Hypercholesterolemia: 0 n (%)
  ≥ 10% TRAE: Hypertriglyceridemia: 1 (33.3) n (%)
  ≥ 10% TRAE: LDL increased: 1 (33.3) n (%)
  ≥ 10% TRAE: Leukocytopenia: 1 (33.3) n (%)
  ≥ 10% TRAE: Neutropenia: 0 n (%)
  ≥ 10% TRAE: Sinus bradycardia: 1 (33.3) n (%)
40 mg BID (n = 3)
  Patients with any TEAE: 2 (66.7) n (%)
  Patients with any TEAE, maximum CTCAE Grade 1: 1 (33.3) n (%)
  Patients with any TEAE, maximum CTCAE Grade 2: 1 (33.3) n (%)
  Patients with any TEAE, maximum CTCAE Grade 3: 0 n (%)
  ≥ 10% TRAE: ALT increased: 0 n (%)
  ≥ 10% TRAE: AST increased: 0 n (%)
  ≥ 10% TRAE: Decreased appetite: 0 n (%)
  ≥ 10% TRAE: Diarrhea: 0 n (%)
  ≥ 10% TRAE: ECG QT prolonged: 0 n (%)
  ≥ 10% TRAE: Fatigue: 0 n (%)
  ≥ 10% TRAE: GGT increased: 0 n (%)
  ≥ 10% TRAE: Hypercholesterolemia: 0 n (%)
  ≥ 10% TRAE: Hypertriglyceridemia: 1 (33.3) n (%)
  ≥ 10% TRAE: LDL increased: 1 (33.3) n (%)
  ≥ 10% TRAE: Leukocytopenia: 2 (66.7) n (%)
  ≥ 10% TRAE: Neutropenia: 0 n (%)
  ≥ 10% TRAE: Sinus bradycardia: 0 n (%)
60 mg BID (n = 4)
  Patients with any TEAE: 3 (75.0) n (%)
  Patients with any TEAE, maximum CTCAE Grade 1: 1 (25.0) n (%)
  Patients with any TEAE, maximum CTCAE Grade 2: 2 (50.0) n (%)
  Patients with any TEAE, maximum CTCAE Grade 3: 0 n (%)
  ≥ 10% TRAE: ALT increased: 1 (25.0) n (%)
  ≥ 10% TRAE: AST increased: 1 (25.0) n (%)
  ≥ 10% TRAE: Decreased appetite: 0 n (%)
  ≥ 10% TRAE: Diarrhea: 2 (50.0) n (%)
  ≥ 10% TRAE: ECG QT prolonged: 2 (50.0) n (%)
  ≥ 10% TRAE: Fatigue: 1 (25.0) n (%)
  ≥ 10% TRAE: GGT increased: 1 (25.0) n (%)
  ≥ 10% TRAE: Hypercholesterolemia: 3 (75.0) n (%)
  ≥ 10% TRAE: Hypertriglyceridemia: 2 (50.0) n (%)
  ≥ 10% TRAE: LDL increased: 1 (25.0) n (%)
  ≥ 10% TRAE: Leukocytopenia: 1 (25.0) n (%)
  ≥ 10% TRAE: Neutropenia: 1 (25.0) n (%)
  ≥ 10% TRAE: Sinus bradycardia: 1 (25.0) n (%)
80 mg BID (n = 4)
  Patients with any TEAE: 4 (100.0) n (%)
  Patients with any TEAE, maximum CTCAE Grade 1: 3 (75.0) n (%)
  Patients with any TEAE, maximum CTCAE Grade 2: 1 (25.0) n (%)
  Patients with any TEAE, maximum CTCAE Grade 3: 0 n (%)
  ≥ 10% TRAE: ALT increased: 0 n (%)
  ≥ 10% TRAE: AST increased: 0 n (%)
  ≥ 10% TRAE: Decreased appetite: 1 (25.0) n (%)
  ≥ 10% TRAE: Diarrhea: 2 (50.0) n (%)
  ≥ 10% TRAE: ECG QT prolonged: 1 (25.0) n (%)
  ≥ 10% TRAE: Fatigue: 2 (50.0) n (%)
  ≥ 10% TRAE: GGT increased: 0 n (%)
  ≥ 10% TRAE: Hypercholesterolemia: 0 n (%)
  ≥ 10% TRAE: Hypertriglyceridemia: 0 n (%)
  ≥ 10% TRAE: LDL increased: 0 n (%)
  ≥ 10% TRAE: Leukocytopenia: 2 (50.0) n (%)
  ≥ 10% TRAE: Neutropenia: 0 n (%)
